Test results taken from paper PMC7170309, “Imidazopyridine-fused [1,3]diazepinones: modulations of positions 2 to 4 and their impacts on the anti-melanoma activity” (Journal of Enzyme Inhibition and Medicinal Chemistry, 2020).

Experiments:
[1] = system: 786-0; experiment: NCI-60 SRB assay, 786-0 (Renal Cancer); type: cell-based, human; details: 10 µM, 48 h; for G%: growth vs untreated control
Description: (§1) Primary anticancer assay was performed on a panel of 60 human cancer cell lines derived from nine neoplastic diseases, in accordance with the protocol of the Drug Evaluation Branch, National Cancer Institute, Bethesda, Maryland, USA[22]. Cells were incubated with tested compounds at 10 µM for 48 h. The growth percentage was evaluated spectrophotometrically using a protein binding dye, SRB. Results for each tested compound were reported as the percent of growth of treated cells when compared to untreated control cells.
(§2) To better compare the activity profile of these two series of compounds, compounds 5 and 8 were selected and then evaluated towards a panel of sixty cancer cell lines corresponding to nine different cancer types, i.e. leukaemia, melanoma, as well as lung, colon, central nervous system, ovarian, renal, prostate and breast cancers (NCI evaluation). Indeed, it is now well established that the growth inhibitory patterns of anticancer drugs against the NCI-60 cell line panel correlated well with their modes of action. For example, compounds that bind to tubulin have similar growth inhibition patterns regardless of which site on tubulin they bind[30]. […] Compounds were tested using the sulforhodamine B (SRB) assay that provides a direct cell density index. The amount of dye incorporated by the cells increases with the increase of the total protein biomass. Cells were incubated for 48 h with compounds at 10 µM concentration, then cell growth was evaluated spectrophotometrically and presented as the percent of untreated control cells. Values of the most sensitive cell lines were compared to those obtained with JMV5038 (Figure 4, for all data see SI).

[2] = system: ACHN; experiment: NCI-60 SRB assay, ACHN (Renal Cancer); type: cell-based, human; details: 10 µM, 48 h; for G%: growth vs untreated control
Description: as §1, §2

[3] = system: UACC-257; experiment: NCI-60 SRB assay, UACC-257 (Melanoma); type: cell-based, human; details: 10 µM, 48 h; for G%: growth vs untreated control
Description: as §1, §2

[4] = system: M14; experiment: NCI-60 SRB assay, M14 (Melanoma); type: cell-based, human; details: 10 µM, 48 h; for G%: growth vs untreated control
Description: as §1, §2

[5] = Calculated physicochemical parameters (molsoft cheminformatic tool); details: predicted
Description: Data set of physicochemical properties (cLogP, TPSA and molecular volume, Table 2) were calculated using the online available molsoft cheminformatic tool[23]. IC50 values of the compounds included in the test are presented in Table 1 for the correlations between IC50 and physicochemical properties of compounds modified in position 2 (Figure 2), and in Table S1 (SI) for the correlations between in vitro anti-cancer activity of JMV5038, compound 5 and […] on the NCI cell line panel (Figure 4). Pearson’s correlation coefficient r and level of significant p values were calculated using Origin Pro 2019.

[6] = system: OVCAR-5; experiment: NCI-60 SRB assay, OVCAR-5 (Ovarian Cancer); type: cell-based, human; details: 10 µM, 48 h; for G%: growth vs untreated control;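 as to Mean G% - G%: mean growth across the NCI-60 panel minus this line's growth with positive meaning more sensitive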
Description: as §1, §2

[7] = system: COLO 205; experiment: NCI-60 SRB assay, COLO 205 (Colon Cancer); type: cell-based, human; details: 10 µM, 48 h; for G%: growth vs untreated control
Description: as §1, §2

[8] = system: CAKI-1; experiment: NCI-60 SRB assay, CAKI-1 (Renal Cancer); type: cell-based, human; details: 10 µM, 48 h; for G%: growth vs untreated control
Description: as §1, §2

[9] = system: KM12; experiment: NCI-60 SRB assay, KM12 (Colon Cancer); type: cell-based, human; details: 10 µM, 48 h; for G%: growth vs untreated control
Description: as §1, §2

[10] = system: PC-3; experiment: NCI-60 SRB assay, PC-3 (Prostate Cancer); type: cell-based, human; details: 10 µM, 48 h; for G%: growth vs untreated control
Description: as §1, §2

[11] = system: MDA-MB-435 cells; experiment: DNA cell cycle analysis (flow cytometry); type: cell-based, human; details: 5 µM; for proportion of cells in G2/M phase: control 14.3%; for proportion of cells in G1 phase: control 47.1%
Description: The cell cycle analysis was performed as previously described to compare data with our previous results. Flow cytometric analysis was performed on 350,000 MDA-MB-435 cells seeded in culture dishes (60 mm diameter) and allowed to grow for 48 h. Cells were then treated with compound 5 or 8 at 5 µM concentration for 16 h and 48 h. After treatment cells were harvested and fixed with 70% ethanol. The fixed cells were then incubated with 10 mg/mL RNase A (Sigma Aldrich) and 1 mg/mL propidium iodide (Sigma Aldrich), in the dark, for 24 h at 4 °C. Finally, DNA content of the cells was analysed using Gallios Beckman Coulter flow cytometer with FlowJo software v1.0.
Thus, compound 5 could probably shared a common mechanism of action with JMV5038, contrary to compound 8. DNA cell cycle analysis was performed using MDA-MB-435 cells treated with either compound 5 or compound 8, and compared to that obtained with cells treated with vehicle (DMSO) as a negative control. Cell cycle pattern changes of MDA-MB-435 cells were investigated using fluorescence-activated cell sorting (FACS) (Figure 5 and Figure S1, SI). In this experiment MDA-MB-435 cells were treated with or without 5 µM concentration of compound 5 or 8 for 16 h and 48 h.

[12] = system: OVCAR-8; experiment: NCI-60 SRB assay, OVCAR-8 (Ovarian Cancer); type: cell-based, human; details: 10 µM, 48 h; for G%: growth vs untreated control;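 as to Mean G% - G%: mean growth across the NCI-60 panel minus this line's growth with positive meaning more sensitive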
Description: as §1, §2

[13] = system: U251; experiment: NCI-60 SRB assay, U251 (CNS Cancer); type: cell-based, human; details: 10 µM, 48 h; for G%: growth vs untreated control
Description: as §1, §2

[14] = system: MDA-MB-231; experiment: NCI-60 SRB assay, MDA-MB-231 (Breast Cancer); type: cell-based, human; details: 10 µM, 48 h; for G%: growth vs untreated control;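 as to Mean G% - G%: mean growth across the NCI-60 panel minus this line's growth with positive meaning more sensitive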
Description: as §1, §2

[15] = system: HOP-62; experiment: NCI-60 SRB assay, HOP-62 (NSCLC); type: cell-based, human; details: 10 µM, 48 h; for G%: growth vs untreated control;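 as to Mean G% - G%: mean growth across the NCI-60 panel minus this line's growth with positive meaning more sensitive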
Description: as §1, §2

[16] = system: HL-60(TB); experiment: NCI-60 SRB assay, HL-60(TB) (Leukemia); type: cell-based, human; details: 10 µM, 48 h; for G%: growth vs untreated control
Description: as §1, §2

[17] = system: RPMI-8226; experiment: NCI-60 SRB assay, RPMI-8226 (Leukemia); type: cell-based, human; details: 10 µM, 48 h; for G%: growth vs untreated control
Description: as §1, §2

[18] = system: K-562; experiment: NCI-60 SRB assay, K-562 (Leukemia); type: cell-based, human; details: 10 µM, 48 h; for G%: growth vs untreated control
Description: as §1, §2

[19] = system: NIH-3T3 non-cancerous cells; design: method as in PMID 24561668; details: even at 100 µM; cited from earlier work

Row | Structure (SMILES) | Mean G% - G% [1] | G% [1] | Mean G% - G% [2] | G% [2] | Mean G% - G% [3] | G% [3] | Mean G% - G% [4] | G% [4] | Mean G% - G% [6] | G% [6] | Mean G% - G% [7] | G% [7] | Mean G% - G% [8] | G% [8] | Mean G% - G% [9] | G% [9] | Mean G% - G% [10] | G% [10] | Mean G% - G% [12] | G% [12] | further results
1 | C[C@@H]1NC(c2ccc(N=[N+]=[N-])cc2)=Nc2nc3ccccn3c2C1=O [Compound 5, (4S)-4-methyl-2-(4-azidophenyl)-3,4-dihydro-5H-pyrido[1’,2’:1,2]imidazo[4,5-d][1,3]diazepin-5-one] | -9,88% | 95,14% | 0,49% | 84,77% | -15,59% | 100,85% | 3,28% | 81,98% | -22,84% | 108,10% | 5,95% | 79,31% | 10,49% | 74,77% | 27,28% | 57,98% | -10,97% | 96,23% | -16,08% | 101,34% | molecular volume increase compared to JMV5038 [5]: 4%; proportion of cells in G2/M phase ([11]; 16 h): 33.1%; proportion of cells in G1 phase ([11]; 16 h): decrease of cells in G1 phase; proportion of cells in G2/M phase ([11]; 48 h): 18.4%; cells in subG1 phase (apoptosis) ([11]; time not explicit (sentence follows 48 h), control 1.2%): 2.4%; Mean G% - G% [13]: -13,85%; G% [13]: 99,11%; Mean G% - G% [14]: 4,91%; G% [14]: 80,35%; Mean G% - G% [15]: 6,31%; G% [15]: 78,95%
2 | C[C@@H]1NC(c2csc3ccccc23)=Nc2nc3ccccn3c2C1=O [Compound 8, (4S)-4-methyl-2-benzothiophen-3-yl-3,4-dihydro-5H-pyrido[1’,2’:1,2]imidazo[4,5-d][1,3]diazepin-5-one] | -14,72% | 89,59% | -4,72% | 79,59% | -23,68% | 98,55% | -16,75% | 91,62% | -32,82% | 107,69% | -25,43% | 100,30% | 39,76% | 35,11% | 4,90% | 69,97% | -2,69% | 77,56% | -9,67% | 84,54% | Mean G% - G% [16]: 6,00%; G% [16]: 68,87%; Mean G% - G% [17]: 24,51%; G% [17]: 50,36%; Mean G% - G% [18]: -6,34%; G% [18]: 81,21%; proportion of cells in G2/M phase ([11]; 16 h): 20.8%; proportion of cells in G1 phase ([11]; 16 h): 53.0%; proportion of cells in G2/M phase ([11]; 48 h): 15.4%; Mean G% - G% [13]: -12,47%; G% [13]: 87,34%; Mean G% - G% [14]: 6,94%; G% [14]: 67,93%; Mean G% - G% [15]: 23,74%; G% [15]: 51,13%
3 | [N-]=[N+]=NCCCC[C@@H]1NC(c2ccc(Br)cc2)=Nc2nc3ccccn3c2C1=O [Compound 16, (4S)-4-(4-azidobutyl)-2-(4-bromophenyl)-3,4-dihydro-5H-pyrido[1’,2’:1,2]imidazo[4,5-d][1,3]diazepin-5-one] | 0,98% | 90,79% | 3,57% | 88,20% | 5,48% | 86,29% | -14,11% | 105,88% | -11,70% | 103,47% | -15,42% | 107,19% | 7,26% | 84,51% | 10,11% | 81,66% | -10,51% | 102,28% | 6,78% | 84,99% | Mean G% - G% [16]: 18,52%; G% [16]: 73,25%; Mean G% - G% [13]: 0,74%; G% [13]: 91,03%; Mean G% - G% [14]: 16,73%; G% [14]: 75,04%; Mean G% - G% [15]: 14,42%; G% [15]: 77,35%
4 | C[C@@H]1NC(c2ccc(Br)cc2)=Nc2nc3ccccn3c2C1=O [JMV5038] | -28,86% | 83,10% | -14,97% | 69,21% | -15,71% | 69,95% | 22,48% | 31,76% | -28,14% | 82,38% | 27,91% | 26,33% | 10,09% | 44,15% | 24,69% | 29,55% | -8,96% | 63,20% | -18,28% | 72,52% | Mean G% - G% [17]: -39,73%; G% [17]: 93,97%; Mean G% - G% [18]: 29,92%; G% [18]: 24,32%; Mean G% - G% [13]: 0,29%; G% [13]: 53,95%; cytotoxic activity on NIH-3T3 fibroblasts [19]: no significant cytotoxic activity; Mean G% - G% [14]: 1,53%; G% [14]: 52,71%; Mean G% - G% [15]: -1,60%; G% [15]: 55,84%
